Results as given in patent publication US7795303B2, “Active agents combination exhibiting insecticidal and acaricide properties” (Bayer CropScience AG, priority 2003, dated 2010).

Columns and labels:
[1] = system: larvae of the mustard beetle (Phaedon cochleariae); experiment: Phaedon larvae test; assay type: in vivo; conditions: 100 ppm, cabbage leaves dipped
Experimental: (§1) To produce a suitable preparation of active compound, 1 part by weight of active compound is mixed with the stated amounts of solvent and emulsifier, and the concentrate is diluted with emulsifier-containing water to the desired concentration.
Cabbage leaves (Brassica oleracea) are treated by being dipped into the preparation of active compound of the desired concentration and are populated with larvae of the mustard beetle (Phaedon cochleariae) while the leaves are still moist.
After the desired period of time, the kill in % is determined. 100% means that all beetle larvae have been killed; 0% means that none of the beetle larvae have been killed. The kill rates determined are calculated using the Colby formula (see page 32).

[2] = system: caterpillars of the army worm (Spodoptera frugiperda); experiment: Spodoptera frugiperda test; assay type: in vivo; conditions: 100 ppm, cabbage leaves dipped
Experimental: as §1
Cabbage leaves (Brassica oleracea) are treated by being dipped into the preparation of active compound of the desired concentration and are populated with caterpillars of the army worm (Spodoptera frugiperda) while the leaves are still moist.
After the desired period of time, the kill in % is determined. 100% means that all caterpillars have been killed; 0% means that none of the caterpillars have been killed. The kill rates determined are calculated using the Colby formula (see page 32).

Q: How did the “Kill rate in % after 6 d” value [1] turn out when `Cc1cc(C)c(C2=C(OC(=O)CC(C)(C)C)C3(CCCC3)OC2=O)c(C)c1` [Compound (I-b-1)] was run?
A: Its value is 30%.

Q: And the “Kill rate in % after 6 d” value [2]?
A: The value was 5%.
